Assay results as given in patent publication US20020123648A1, “Aqueous stable lysine solution” (AJINOMOTO CO., INC., priority 1999, published 2002).

Legend:
[1] = Solubility of lysine: suspension stirred 1 week at constant temperature, lysine analysed in supernatant; assay type: physicochemical; conditions: 20° C.; chloride ions at a molar ratio of 27% or less to the lysine (hydrochloric acid)
Experimental: 70% lysine base solution obtained under (1) above, 35% hydrochloric acid and deionized water were used in the amounts shown in Table 1 below, respectively, to prepare 7 kinds of solutions. In these solutions, the lysine base crystals obtained under (2) above and the lysine hydrochloride.2H2O crystals obtained under (3) above were suspended respectively in the amounts shown in the same table, and then stirred for 1 week during which the temperature was kept at 20° C.
The crystals were removed from these suspensions, and the concentration of the chloride ions in each of the remaining solutions was analyzed by an ion chromatographic analyzer “Yokokawa IC7000 model”, and the concentration of lysine therein was analyzed by an amino acid analyzer “Hitachi L-8500 model”. […]
The crystals were removed from these suspensions, and the concentration of the chloride ions in each of the resulting solutions (supernatants) was analyzed by the ion chromatographic analyzer “Yokokawa IC7000 model”, and the concentration of the lysine therein was analyzed by the amino acid analyzer “Hitachi L-8500 model”. […]

[2] = storage at 50° C. for 6 weeks; cited from earlier work
[3] = used in the same molar amount; cited from earlier work

In the case of `NCCCC[C@H](N)C(=O)O` [lysine], the “solubility of lysine compared with the case where the chloride ions are not contained (FIG. 1)” value [1] is reported as “increased”.

In the case of `NCCCC[C@H](N)C(=O)O` [crystalline L-lysine, L-lysine], the coloration after storage [2] is listed as “evidently colored” and the “formation of by-products after storage” value [2] is listed as “confirmed”.

For `Cl.NCCCC[C@H](N)C(=O)O` [L-lysine monohydrochloride], the “action in a feeding experiment” value [3] is given as “same action”.
